The text below walks through data of US7196105B2, “Treatment of human multiple myeloma by curcumin” (Research Development Foundation, priority 2002, dated 2007).

One assay relates to IκBα phosphorylation. Put plainly: Western blot for phosphorylated IκBα in U266 cells. The format is cell-based, human. The following applies: curcumin 50 μM, time course. As for the experimental part: FIG. 3A: Level of phosphorylated IκBα determined by Western blotting. FIG. 3B: Immunoprecipitated IκB kinase and kinase assay of IκB kinase activity (upper panel) or Western blotting for the analysis of total IKKα and IKKβ proteins in cytoplasmic extracts (lower panel). FIG. 3C: IκB kinase was immunoprecipitated and kinase assay was performed in the absence or presence of the indicated concentrations of curcumin (upper panel). Lower panel indicates the amount of GST-IκBα protein stained with Coomassie Blue in each well in the same dried gel. Thirty to fifty micrograms of cytoplasmic protein extracts prepared as described (Chaturvedi et al., 2000) were resolved on 10% SDS-PAGE gel. After electrophoresis, the proteins were electrotransferred to a nitrocellulose membrane, blocked with 5% nonfat milk, and probed with antibodies against either IkBa, phospho-IkBa, Bcl-2, Bcl-xL, or cyclin D1 (1:3000) for 1 h. Thereafter, the blot was washed, exposed to HRP-conjugated secondary antibodies for 1 h, and finally detected by chemiluminescence (ECL, Amersham Pharmacia Biotech., Arlington Heights, Ill.).
A general note: In western blotting, separated proteins are transferred to a membrane and probed.

Another assay deals with T1, IκB kinase (Homo sapiens, UniProt O14920+O15111).
T1 construct: 200 μg cytoplasmic extracts were immunoprecipitated with 1 μg of anti-IKKa and IKKb antibodies each; endogenous in cells; host or cells: U266 human multiple myeloma cells (cytoplasmic extract, immunoprecipitate on protein A/G-Sepharose)
T1 sequence (O15111 whole entry): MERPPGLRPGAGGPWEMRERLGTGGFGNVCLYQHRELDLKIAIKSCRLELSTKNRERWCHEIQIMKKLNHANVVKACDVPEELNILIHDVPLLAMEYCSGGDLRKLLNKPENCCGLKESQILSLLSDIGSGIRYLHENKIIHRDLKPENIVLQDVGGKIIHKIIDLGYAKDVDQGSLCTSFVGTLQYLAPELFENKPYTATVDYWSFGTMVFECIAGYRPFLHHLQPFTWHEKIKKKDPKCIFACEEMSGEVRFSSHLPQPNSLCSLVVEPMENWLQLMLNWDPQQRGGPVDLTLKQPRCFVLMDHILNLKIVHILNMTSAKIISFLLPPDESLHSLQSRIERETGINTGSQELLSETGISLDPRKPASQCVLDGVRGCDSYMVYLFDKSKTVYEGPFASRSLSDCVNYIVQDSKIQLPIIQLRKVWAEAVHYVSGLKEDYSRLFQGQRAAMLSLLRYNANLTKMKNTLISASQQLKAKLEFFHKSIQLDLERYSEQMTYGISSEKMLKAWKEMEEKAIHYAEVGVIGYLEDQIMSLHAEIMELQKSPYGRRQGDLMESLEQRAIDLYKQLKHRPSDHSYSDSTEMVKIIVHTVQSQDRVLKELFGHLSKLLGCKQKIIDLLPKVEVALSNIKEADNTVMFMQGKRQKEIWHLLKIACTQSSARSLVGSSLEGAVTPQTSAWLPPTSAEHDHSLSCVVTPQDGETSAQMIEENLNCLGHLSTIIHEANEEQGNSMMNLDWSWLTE
T1 sequence (O14920 whole entry): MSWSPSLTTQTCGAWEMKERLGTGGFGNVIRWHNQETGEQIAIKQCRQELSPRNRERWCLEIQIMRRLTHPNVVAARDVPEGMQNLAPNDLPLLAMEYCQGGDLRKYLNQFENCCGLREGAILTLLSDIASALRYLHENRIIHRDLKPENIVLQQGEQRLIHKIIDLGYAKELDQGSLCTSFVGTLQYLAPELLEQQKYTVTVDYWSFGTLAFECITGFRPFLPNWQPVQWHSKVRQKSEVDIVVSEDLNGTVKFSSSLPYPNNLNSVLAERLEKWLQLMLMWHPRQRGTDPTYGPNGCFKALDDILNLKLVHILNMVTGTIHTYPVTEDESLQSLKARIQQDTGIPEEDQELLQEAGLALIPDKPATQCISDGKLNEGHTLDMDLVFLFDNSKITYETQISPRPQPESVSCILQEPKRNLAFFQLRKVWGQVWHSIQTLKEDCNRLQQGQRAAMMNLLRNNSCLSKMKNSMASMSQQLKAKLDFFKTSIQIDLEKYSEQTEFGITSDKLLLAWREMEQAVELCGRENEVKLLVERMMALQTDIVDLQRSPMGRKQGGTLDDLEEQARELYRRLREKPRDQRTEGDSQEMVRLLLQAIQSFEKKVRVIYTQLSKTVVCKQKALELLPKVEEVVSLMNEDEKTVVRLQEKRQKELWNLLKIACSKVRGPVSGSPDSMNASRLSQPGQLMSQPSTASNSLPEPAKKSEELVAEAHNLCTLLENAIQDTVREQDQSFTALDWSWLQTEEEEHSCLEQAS
T1 sequence (Q9Y6K9 whole entry partner): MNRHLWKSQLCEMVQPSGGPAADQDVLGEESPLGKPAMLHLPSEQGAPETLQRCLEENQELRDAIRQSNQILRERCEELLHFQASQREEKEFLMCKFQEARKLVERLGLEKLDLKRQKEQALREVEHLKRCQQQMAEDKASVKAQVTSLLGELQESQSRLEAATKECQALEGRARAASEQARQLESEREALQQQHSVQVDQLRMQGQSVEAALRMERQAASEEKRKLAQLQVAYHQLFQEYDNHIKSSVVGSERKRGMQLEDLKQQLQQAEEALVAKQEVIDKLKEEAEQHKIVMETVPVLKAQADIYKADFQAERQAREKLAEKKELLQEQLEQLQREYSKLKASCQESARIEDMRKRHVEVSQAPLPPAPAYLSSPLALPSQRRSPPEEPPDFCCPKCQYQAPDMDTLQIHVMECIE
Briefly: IκB kinase assay on IKK immunoprecipitated from curcumin-treated U266 cells. In kind it is cell-based. The following applies: curcumin 50 μM, time course, GST-IκBα substrate. The protocol:
Five million U266 cells/2.5 ml were treated with curcumin (50 μM) for the indicated times and cytoplasmic extracts were prepared. FIG. 3A: Level of phosphorylated IκBα determined by Western blotting. FIG. 3B: Immunoprecipitated IκB kinase and kinase assay of IκB kinase activity (upper panel) or Western blotting for the analysis of total IKKα and IKKβ proteins in cytoplasmic extracts (lower panel). FIG. 3C: IκB kinase was immunoprecipitated and kinase assay was performed in the absence or presence of the indicated concentrations of curcumin (upper panel). Lower panel indicates the amount of GST-IκBα protein stained with Coomassie Blue in each well in the same dried gel.
The IkB kinase assay was performed with a modified method as described earlier (Manna et al., 2000). Briefly, 200 μg cytoplasmic extracts were immunoprecipitated with 1 μg of anti-IKKa and IKKb antibodies each, and the immune complexes so formed were precipitated with 0.01 ml of protein A/G-Sepharose beads for 2 hour. The beads were washed first with lysis buffer and then with kinase assay buffer (50 mM HEPES pH 7.4, 20 mM MgCl2, and 2 mM DTT). The immune complex was then assayed for kinase activity using kinase assay buffer containing […] [g-P^32]ATP, 10 μM unlabeled ATP, and 2 μg/sample glutathione S-transferase-IkBa (1–54). […] Radioactive bands of the dried gel were visualized and quantitated by PhosphorImager.

The test system of another assay is caspase-7. Briefly: Western blot for procaspase-7 (apoptosis). The format is cell-based, human. The following applies: U266, curcumin 50 μM, time course. As for the experimental part: The cells were washed and total proteins were extracted by lysing the cells. Sixty microgram of extracts were resolved on 10% SDS-PAGE gel, electrotransferred to a nitrocellulose membrane, and probed with anti-procaspase-9 (FIG. 6C), anti-procaspase-7 (FIG. 6D), anti-PARP (FIG. 6E, upper panel) and anti-cleaved PARP (FIG. 6E, lower penal). […] Lysates were then spun at 14000 rpm for 10 min to remove insoluble material, resolved on 7.5% gel and probed with PARP antibodies. PARP was cleaved from the 116-kDa intact protein into 85-kDa and 40-kDa peptide products. To detect cleavage products of procaspase 7 and procaspase 9, whole cell extracts were resolved on 10% gel and probed with appropriate antibodies.

In a further assay the test system is Bcl-2. Put plainly: Western blot for NF-κB-regulated gene product Bcl-2 in U266 cells. The format is cell-based, human. The note with it: curcumin 50 μM. As for the experimental part: Sixty micrograms of cytoplasmic extracts were resolved on 10% SDS-PAGE gel, electrotransferred on a nitrocellulose membrane, and probed for the following: IκBα (FIG. 4A); Bcl-2 (FIG. 4B); Bcl-xL (FIG. 4C) and cyclin D1 (FIG. 4D). The same blots were stripped and reprobed with anti-β-actin antibody to show equal protein loading (lower panel in each figure). FIG. 4E: […] U266, MM.1 or RPMI 8226 cells (1×10^7) were treated with curcumin ([…]) in 5 ml of medium for the indicated times. Supernatants were harvested and concentrated approximately 20×, and IL-6 was quantitated by an IL-6 ELISA kit. Values shown were normalized to 1 ml of un-concentrated supernatants. Thirty to fifty micrograms of cytoplasmic protein extracts prepared as described (Chaturvedi et al., 2000) were resolved on 10% SDS-PAGE gel. After electrophoresis, the proteins were electrotransferred to a nitrocellulose membrane, blocked with 5% nonfat milk, and probed with antibodies against either IkBa, phospho-IkBa, Bcl-2, Bcl-xL, or cyclin D1 (1:3000) for 1 h. Thereafter, the blot was washed, exposed to HRP-conjugated secondary antibodies for 1 h, and finally detected by chemiluminescence (ECL, Amersham Pharmacia Biotech., Arlington Heights, Ill.).

A further assay deals with U266. Briefly: Growth of cells, viable cell count by trypan blue dye exclusion. In kind it is cell-based. The following applies: Homo sapiens, U-266; U266, curcumin 1 μM. The text has this: (§1) The results are shown as the mean (±s. d.) cell count from triplicate cultures.
A further assay concerns RPMI 8226. Described as above. The format is cell-based. The note with it: Homo sapiens; RPMI 8226, curcumin 1 μM.
Source text: as §1

Another assay concerns MM.1. The assay is described as above. In kind it is cell-based. The note with it: Homo sapiens, Mm1; MM.1, curcumin 1 μM.
Source text: as §1

A further assay has as its system MM.1R. The description is as above. In kind it is cell-based. The following applies: Homo sapiens, curcumin 1 μM.
Source text: as §1

In the next assay the test system is IKKα and IKKβ. Briefly: Western blot for total IKKα and IKKβ proteins in U266 cytoplasmic extracts. The format is cell-based, human. The note with it: U266 cells, curcumin 50 μM. The protocol: FIG. 3A: Level of phosphorylated IκBα determined by Western blotting. FIG. 3B: Immunoprecipitated IκB kinase and kinase assay of IκB kinase activity (upper panel) or Western blotting for the analysis of total IKKα and IKKβ proteins in cytoplasmic extracts (lower panel). FIG. 3C: IκB kinase was immunoprecipitated and kinase assay was performed in the absence or presence of the indicated concentrations of curcumin (upper panel). Lower panel indicates the amount of GST-IκBα protein stained with Coomassie Blue in each well in the same dried gel. To determine the total amount of IKK complex in each sample, […] of cytoplasmic protein was resolved on a 7.5% acrylamide gel and then electrotransferred to a nitrocellulose membrane. The membrane was blocked with 5% nonfat milk protein for 1 h and then incubated with either anti-IKKα or anti-IKKβ antibodies for 1 h. The membrane was then washed and treated with HRP-conjugated secondary anti-mouse IgG antibody and finally detected by chemiluminescence (Amersham Pharmacia Biotech, Arlington Heights, Ill.).

A value given as a limit tells only on which side of the number the result lay.

What is called inhibition is the drop in the measured response relative to a control, in per cent. `COc1cc(/C=C/C(=O)CC(=O)/C=C/c2ccc(O)c(OC)c2)ccc1O` [curcumin, diferuloylmethane]: in the assay with IκBα phosphorylation, the “phosphorylated IκBα content” value is “decreased rapidly”. Also, the “IκB kinase activity of IKK immunoprecipitated from treated cells” value on IκB kinase is given as “decreased in kinase activity”. Also, in the assay with caspase-7, the “activation of caspase-7 (disappearance of 35-kDa band)” value is “time-dependent activation”. The “time to lowest level (complete decline) of Bcl-2” value with Bcl-2 was at most 8 h. In addition, the inhibition at 1 µM amounted to 27% in the assay with U266, 23% with RPMI 8226, 45% with MM.1 and 51% in the assay with MM.1R. Further, the “protein levels of IκB kinase subunits IKKα and IKKβ” value with IKKα and IKKβ is “no significant change”.
